From patent US12077503B2, “Substituted cyclic amides and their use as herbicides” (FMC CORPORATION, priority 2015, dated 2024)

What was measured:
Format in all cases: in vivo
Kochia (Kochia scoparia) [1] = test: Test A postemergence; conditions: Bassia scoparia, post-emergence, 240 h, Postemergence, read-out: Plant response rating, Kochia; for pest or weed control at 125 g/ha: 125 g ai/ha, visual injury after approximately 10 d, 0 to 100 scale where 0 is no effect and 100 is complete control
Method in brief: (§1)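 Seeded soil received test chemicals as a preemergence directed spray, and seedlings at one to two leaves, 2–10 cm tall, received them postemergence, in a non-phytotoxic, surfactant-containing solvent mixture. Pots were held in a greenhouse for approximately 10 d, then rated for injury from 0, no effect, to 100, complete control.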

[2] = system: barnyardgrass (Echinochloa crus-galli); test: Test A postemergence; conditions: Echinochloa crus-galli, post-emergence, 240 h, Postemergence, read-out: Plant response rating, Barnyardgrass; for pest or weed control at 125 g/ha: 125 g ai/ha, visual injury after approximately 10 d, 0 to 100 scale where 0 is no effect and 100 is complete control
Method in brief: as §1

[3] = system: wheat (Triticum aestivum); test: Test A postemergence; conditions: Triticum aestivum, post-emergence, 240 h, Postemergence, read-out: Plant response rating, Wheat; for plant injury at 125 g/ha: 125 g ai/ha, visual injury after approximately 10 d, 0 to 100 scale where 0 is no effect and 100 is complete control
Method in brief: as §1

corn (Zea mays) = test: Test A postemergence; conditions: Zea mays, post-emergence, 240 h, Postemergence; for Corn plant response rating (crop injury, 0 = no effect, 100 = complete kill) at 125 g/ha: 125 g ai/ha, visual injury after approximately 10 d, 0 to 100 scale where 0 is no effect and 100 is complete control
Method in brief: as §1

[4] = system: pigweed (Amaranthus retroflexus); test: Test A postemergence; conditions: Amaranthus retroflexus, post-emergence, 240 h, Postemergence, read-out: Plant response rating, Pigweed; for pest or weed control at 125 g/ha: 125 g ai/ha, visual injury after approximately 10 d, 0 to 100 scale where 0 is no effect and 100 is complete control
Method in brief: as §1

[5] = system: ryegrass, Italian (Italian ryegrass, Lolium multiflorum); test: Test A postemergence; conditions: Lolium multiflorum, post-emergence, 240 h, Postemergence, read-out: Plant response rating, Ryegrass, Italian; for pest or weed control at 125 g/ha: 125 g ai/ha, visual injury after approximately 10 d, 0 to 100 scale where 0 is no effect and 100 is complete control
Method in brief: as §1

[6] = system: Galium (catchweed bedstraw, Galium aparine); test: Test A postemergence; conditions: Galium, post-emergence, 240 h, Postemergence, read-out: Plant response rating, Galium; for pest or weed control at 125 g/ha: 125 g ai/ha, visual injury after approximately 10 d, 0 to 100 scale where 0 is no effect and 100 is complete control
Method in brief: as §1

[7] = system: ragweed (common ragweed, Ambrosia elatior); test: Test A postemergence; conditions: Ambrosia artemisiifolia, post-emergence, 240 h, Postemergence, read-out: Plant response rating, Ragweed; for pest or weed control at 125 g/ha: 125 g ai/ha, visual injury after approximately 10 d, 0 to 100 scale where 0 is no effect and 100 is complete control
Method in brief: as §1

[8] = system: blackgrass (Alopecurus myosuroides); test: Test A postemergence; conditions: Alopecurus myosuroides, post-emergence, 240 h, Postemergence, read-out: Plant response rating, Blackgrass; for pest or weed control at 125 g/ha: 125 g ai/ha, visual injury after approximately 10 d, 0 to 100 scale where 0 is no effect and 100 is complete control
Method in brief: as §1

Kochia (Kochia scoparia) [9] = test: Test A preemergence; conditions: Bassia scoparia, pre-emergence, 240 h; for pest or weed control at 125 g/ha: 125 g ai/ha, visual injury rating after approximately 10 d, read-out: Kochia plant response rating (0 to 100 scale, 0 is no effect, 100 is complete control); for pest or weed control at 500 g/ha: 500 g ai/ha, preemergence, visual injury rating about 10 d after treatment, read-out: Kochia plant response rating
Method in brief: as §1

[10] = system: barnyardgrass (Echinochloa crus-galli); test: Test A preemergence; conditions: Echinochloa crus-galli, pre-emergence, 240 h; for pest or weed control at 125 g/ha: 125 g ai/ha, visual injury rating after approximately 10 d, read-out: Barnyardgrass plant response rating (0 to 100 scale, 0 is no effect, 100 is complete control); for pest or weed control at 500 g/ha: 500 g ai/ha, preemergence, visual injury rating about 10 d after treatment, read-out: Barnyardgrass plant response rating
Method in brief: as §1

[11] = system: pigweed (Amaranthus retroflexus); test: Test A preemergence; conditions: Amaranthus retroflexus, pre-emergence, 240 h; for pest or weed control at 125 g/ha: 125 g ai/ha, visual injury rating after approximately 10 d, read-out: Pigweed plant response rating (0 to 100 scale, 0 is no effect, 100 is complete control); for pest or weed control at 500 g/ha: 500 g ai/ha, preemergence, visual injury rating about 10 d after treatment, read-out: Pigweed plant response rating
[12] = system: ryegrass, Italian (Italian ryegrass, Lolium multiflorum); test: Test A preemergence; conditions: Lolium multiflorum, pre-emergence, 240 h; for pest or weed control at 125 g/ha: 125 g ai/ha, visual injury rating after approximately 10 d, read-out: Ryegrass, Italian plant response rating (0 to 100 scale, 0 is no effect, 100 is complete control); for pest or weed control at 500 g/ha: 500 g ai/ha, preemergence, visual injury rating about 10 d after treatment, read-out: Ryegrass, Italian plant response rating
Method in brief: as §1

[13] = system: giant foxtail (Setaria faberii); test: Test A preemergence; conditions: Setaria faberi, pre-emergence, 240 h; for pest or weed control at 125 g/ha: 125 g ai/ha, visual injury rating after approximately 10 d, read-out: Foxtail, Giant plant response rating (0 to 100 scale, 0 is no effect, 100 is complete control); for pest or weed control at 500 g/ha: 500 g ai/ha, preemergence, visual injury rating about 10 d after treatment, read-out: Foxtail, Giant plant response rating
Method in brief: as §1

[14] = system: ragweed (common ragweed, Ambrosia elatior); test: Test A preemergence; conditions: Ambrosia artemisiifolia, pre-emergence, 240 h; for pest or weed control at 125 g/ha: 125 g ai/ha, visual injury rating after approximately 10 d, read-out: Ragweed plant response rating (0 to 100 scale, 0 is no effect, 100 is complete control); for pest or weed control at 500 g/ha: 500 g ai/ha, preemergence, visual injury rating about 10 d after treatment, read-out: Ragweed plant response rating
Method in brief: as §1

[15] = 31 g ai/ha, visual injury after approx. 10 d, 0 to 100 scale, 0 no effect, 100 complete control
[16] = 0 to 100 scale (0 no effect, 100 complete control)

Row | SMILES | pest or weed control at 125 g/ha (Kochia (Kochia scoparia) [1]) [%] | pest or weed control at 125 g/ha [2] [%] | plant injury at 125 g/ha [3] [%] | Corn plant response rating (crop injury, 0 = no effect, 100 = complete kill) at 125 g/ha (corn (Zea mays)) [%] | pest or weed control at 125 g/ha [4] [%] | pest or weed control at 125 g/ha [5] [%] | pest or weed control at 125 g/ha [6] [%] | pest or weed control at 125 g/ha [7] [%] | pest or weed control at 125 g/ha [8] [%] | pest or weed control at 125 g/ha (Kochia (Kochia scoparia) [9]; Preemergence) [%] | pest or weed control at 125 g/ha ([10]; Preemergence) [%] | pest or weed control at 125 g/ha ([11]; Preemergence) [%] | pest or weed control at 125 g/ha ([12]; Preemergence) [%] | pest or weed control at 125 g/ha ([13]; Preemergence) [%] | pest or weed control at 125 g/ha ([14]; Preemergence) [%] | pest or weed control at 500 g/ha (Kochia (Kochia scoparia) [9]; [16]) [%] | pest or weed control at 500 g/ha [10, 16] [%] | pest or weed control at 500 g/ha [11, 16] [%] | pest or weed control at 500 g/ha [12, 16] [%] | pest or weed control at 500 g/ha [13, 16] [%] | further results
1 | CCOc1cc([C@H]2CN(C)C(=O)[C@@H]2C(=O)Nc2cccc(F)c2F)cc(C(F)(F)F)c1 [Compound 971] | 40 | 80 | 50 | 70 | 50 | 50 | 40 | 0 | 50 | 0 | 90 | 20 | 80 | 90 | 20 |  |  |  |  |  | pest or weed control at 31 g/ha (Kochia (Kochia scoparia) [1]; [15]): 20%; pest or weed control at 31 g/ha [2, 15]: 50%; plant injury at 31 g/ha [3, 15]: 30%; Corn plant response rating (crop injury, 0 = no effect, 100 = complete kill) at 31 g/ha (corn (Zea mays); [15]): 70%; pest or weed control at 31 g/ha [4, 15]: 20%; pest or weed control at 31 g/ha [5, 15]: 20%; pest or weed control at 31 g/ha [6, 15]: 20%; pest or weed control at 31 g/ha [7, 15]: 0%; pest or weed control at 31 g/ha [8, 15]: 40%; pest or weed control at 31 g/ha (Kochia (Kochia scoparia) [9]; Preemergence, 31 g ai/ha, 0 to 100 scale (0 no effect, 100 complete control), read-out: Plant response rating, Kochia): 0%; pest or weed control at 31 g/ha ([10]; Preemergence, 31 g ai/ha, 0 to 100 scale (0 no effect, 100 complete control), read-out: Plant response rating, Barnyardgrass): 70%; pest or weed control at 31 g/ha ([11]; Preemergence, 31 g ai/ha, 0 to 100 scale (0 no effect, 100 complete control), read-out: Plant response rating, Pigweed): 20%; pest or weed control at 31 g/ha ([12]; Preemergence, 31 g ai/ha, 0 to 100 scale (0 no effect, 100 complete control), read-out: Plant response rating, Ryegrass, Italian): 50%; pest or weed control at 31 g/ha ([13]; Preemergence, 31 g ai/ha, 0 to 100 scale (0 no effect, 100 complete control), read-out: Plant response rating, Foxtail, Giant): 70%; pest or weed control at 31 g/ha ([14]; Preemergence, 31 g ai/ha, 0 to 100 scale (0 no effect, 100 complete control), read-out: Plant response rating, Ragweed): 0%
2 | CN1C[C@H](c2cc(F)cc(C(F)(F)F)c2)[C@@H](C(=O)Nc2ccc(F)c(F)c2F)C1=O [Compound 993] | 20 | 90 | 50 | 80 | 30 | 50 | 60 | 0 | 70 | 0 | 90 | 40 | 80 | 90 | 0 | 50 | 90 | 80 | 90 | 90 | pest or weed control at 500 g/ha [14, 16]: 60%
3 | CN1CC[C@H](c2ccc(OC(F)(F)F)cc2)[C@@H](C(=O)Nc2ccccc2C(F)(F)F)C1=O [Compound 998] | 0 | 0 | 0 | 0 | 0 | 0 | 0 | 0 | 0 | 0 | 0 | 0 | 0 | 0 | 0 | 0 | 0 | 0 | 0 | 0 | pest or weed control at 500 g/ha [14, 16]: 0%
